# Assay results reported in article PMC5078989, “Targeted inhibition of the COP9 signalosome for treatment of cancer” (Nature Communications, 2016).
# Key:
# Type in all cases: cell-based, human
# [1] = tested on: NCI-H2030 cells; assay: Cell viability assay (CellTiter-Glo), NCI-H2030; settings: NCI-H2030, 72 h; cytostatic
# Description: (§1) Cells were maintained in a humidified incubator at 37 °C and 5% CO2. […] All cells were negatively tested for mycoplasma contamination either by the vendor or in house. […] If not stated otherwise, cells were harvested after incubation for 16 h and subjected to SDS-PAGE and western blotting. The RNA interference experiment was performed with CSN5 stealth siRNA (#HSS116986) and stealth negative control siRNA (#12935-400) (Invitrogen), which were transfected at 10 nM into HCT116 cells using […] (Qiagen) according to the manufacturer's protocols. Seventy-two hours after transfection, cells were harvested and subjected to SDS-PAGE and western blotting (see Supplementary Fig. 7 for all western blottings performed). A standardized CellTiter-Glo Assay (Promega #G7570) based on the quantification of ATP was applied according to the manufacturer's protocol to measure the amount of viable cells in culture. In brief, cells were seeded into 384-well plates at optimal density for each cell line. After 4 h, compounds were added at different concentrations in growth medium and incubated for another 72 h in a humidifying chamber at 37 °C and 5% CO2. Eventually, equal amounts of CellTiter-Glo reagent were added directly to the cells, incubated for 15 min and luminescence was recorded using PHERAstar plate reader (BMG LABTECH GmbH).
# [2] = tested on: HCT116 cells; assay: Immunoblotting of cullins, CRL components and substrates in HCT116 cells
# Description: Figure 2 CSN5 inhibition results in the inactivation of a subset of CRLs and the stabilization of their substrates. Effect on CRL components and substrates after treatment of HCT116 cells with either 1 μM MLN4924 or 1 μM CSN5i-3. (a) Immunoblottings for Cul1 and its CRL components Rbx and Skp1; (b) for cullins Cul2, Cul3 and Cul4A; (c) for F-box protein Skp2 and the SCF^Skp2 substrates p21 and p27; (d) for F-box proteins Fbxo22 and Fbxo30; (e) for F-box protein βTrCP and the SCF^βTrCP substrates Wee1 and pIκBα; (f) for the adaptor KEAP1 and the Cul3^KEAP1 substrate Nrf2; (g) for F-box proteins Fbxw7 and Fbxo3.
# Cells were maintained in a humidified incubator at 37 °C and 5% CO2. HCT116 cells (ATCC #CCL-247) were grown in McCoy's 5A medium (GIBCO #16600–082) supplemented with 10% fetal bovine serum (FBS), TE-1 (RIKEN BioResource Center, #RCB1894), NCI-H2030 (ATCC #CRL-591), SU-DHL-1 (DMSZ #ACC 356), NOMO-1 (HSRRB #IFO50474) and NCIH196 cells (ATCC, #CRL-5823) in RPMI-1640 medium (GIBCO#61870–010) supplemented with 10% FBS, 10 mM HEPES, 1 mM sodium pyruvate and THP-1 cells (ATCC #TIB-202) with additional 0.05 mM 2-mercaptoethanol. DMS273 cells (ECACC #950628) were cultured in Waymouth's MB 752/1 medium (GIBCO#11220–035) supplemented with 10% FBS. All cells were negatively tested for mycoplasma contamination either by the vendor or in house. For treatment with compounds, sub-confluent cells were either treated with inhibitors at the indicated concentrations or mock treated with an equivalent amount of DMSO (final content 0.1%). If not stated otherwise, cells were harvested after incubation for 16 h and subjected to SDS–PAGE and western blotting. The RNA interference experiment was performed with CSN5 stealth siRNA (#HSS116986) and stealth negative control siRNA (#12935–400) (Invitrogen), which were transfected at 10 nM into HCT116 cells using HiperFect (Qiagen) according to the manufacturer's protocols. Seventy-two hours after transfection, cells were harvested and subjected to SDS–PAGE and western blotting (see Supplementary Fig. 7 for all western blottings performed).
# For further analysis, cell lysates were prepared by direct lysis with 2 × Sample buffer (65.8 mM Tris-HCl, pH 6.8, 2.1% SDS, 26.3% glycerol, 0.01% bromophenol blue and 20 mM DTT). Protein lysates from tumour powder were prepared in RIPA buffer (50 mM Tris-HCl pH 8.0, 150 mM NaCl, 1% Triton X-100, 2 mM EDTA, 0.5% sodium deoxycholate and 0.1% SDS) supplemented with 10 mM N-ethylmaleimide, protease inhibitor and phosphatase inhibitor cocktails (Roche Diagnostics). Cells from longer compound incubations were also lysed in RIPA buffer, which allows the protein concentration to be determined by BCA Protein Assay Kit (Pierce). Proteins were separated by SDS–PAGE using 4–20% Tris-Glycine Gels (Invitrogen) and subsequently transferred to polyvinylidene difluoride membranes using a Trans-Blot Turbo System (BioRad). […] Horseradish peroxidase-conjugated secondary antibodies (1:3,000) were purchased from Promega AG and bound antibody was detected by enhanced chemiluminescence (Pierce).
# [3] = tested on: TE-1 cells; assay: Cell viability assay (CellTiter-Glo), TE-1; settings: TE-1, 72 h; cytostatic
# Description: as §1
smiles,measurement,setting,value
"CC(C)n1nc(C(F)F)cc1C(=O)Nc1ccc([C@H]2[C@@H](O)CCCc3cncn32)c(-c2ccccc2)c1 [CSN5i-3, 3-(Difluoromethyl)-N-(6-((5S,6S)-6-hydroxy-6,7,8,9-tetrahydro-5H-imidazo[1,5-a]azepin-5-yl)-[1,1′-biphenyl]-3-yl)-1-isopropyl-1H-pyrazole-5-carboxamide]",AMAX,[1],about −50%
same,"degradation of Wee1, pIκB and Nrf2","[2]; HCT116, 1 μM",did not affect their degradation
same,"levels of SRMs Skp2, Fbxo22 and Fbxo30","[2]; HCT116, 1 μM",degradation
same,"levels of βTrCP, KEAP1, Fbxo3 and Fbxw7","[2]; HCT116, 1 μM",remained stable
same,cullin-1 (Cul1) deneddylation in HCT116 cells,[2]; qualitative western blot analysis,accumulation of neddylated Cul1
same,AMAX,[3],about −50%
